Experimental data published in patent US7612107B2, “Treatment and inhibition of disease conditions using flexible heteroarotinoids” (The Board of Regents of the University of Oklahoma, priority 2005, dated 2009).

Tested on: NF-κB
Test: NF-κB luciferase reporter assay in A2780 cultures
Assay type: cell-based
Conditions: 10 μM SHetA2
Experimental: FIG. 15. SHetA2 Inhibition of NF-κB. A2780 cultures were transfected with the NF-κB reporter and treated with 10 μM SHetA2 for the indicated times. Cell lysates were prepared and evaluated for luciferase activity which was normalized for protein concentration.
Because both TP and TSP4 have DNA binding sites for the NFκB transcription factor in their promoter, the ability of SHetA2 to inhibit activity of NF-κB in ovarian cancer cultures was tested using a luciferase reporter plasmid driven by NF-κB sites in the promoter. […] Inhibition increased over the 4 hour evaluation time (FIG. 15).

CC1(C)CC(C)(C)c2cc(NC(=S)Nc3ccc([N+](=O)[O-])cc3)ccc2S1 [SHetA2]
Time to inhibition of NF-κB activity: ≤ 30 min
